≈ marks a conversion by molar mass, not a printed value. Calls of active or inactive are those of the source.

Consider one compound from ChEMBL document CHEMBL5614418, “Discovery of novel dihydropyrrolidone-thiadiazole compound crosstalk between the YycG/F two-component regulatory pathway and cell membrane homeostasis to combat methicillin-resistant Staphylococcus aureus” (Eur J Med Chem, 2024).

Assay [1] has as its system Staphylococcus epidermidis. As to the kind of experiment: Bactericidal activity against Staphylococcus epidermidis SE1457. The format is functional.
The subject of assay [2] is Staphylococcus epidermidis. The assay is described as follows: Synergistic antibacterial activity against Staphylococcus epidermidis SE1457 assessed as fold increase in MIC in presence of daptomycin. The format is functional.
Assay [3] has as its system Staphylococcus epidermidis. The assay is described as follows: Inhibition of biofilm formation in Staphylococcus epidermidis SE1457 at 1/2 MIC incubated for 16 hrs by SEM analysis. In kind it is functional, organism-based.
Assay [4] has as its system Staphylococcus aureus. As to the kind of experiment: Induction of matured biofilm eradication in methicillin resistant Staphylococcus aureus YUSA145 assessed as reduction in bacterial survival in biofilm at 8 times MIC incubated for 48 hrs by SYTO 9 staining based confocal fluorescence microscopic analysis. The format is functional.
Assay [5] has as its system Staphylococcus aureus. As to the kind of experiment: Induction of matured biofilm eradication in methicillin resistant Staphylococcus aureus YUSA145 assessed as log reduction in bacterial count in biofilm at 8 MIC incubated for 48 hrs by agar plate method. The format is functional.
Assay [6] has as its system Staphylococcus aureus. As to the kind of experiment: Antibacterial activity against methicillin resistant Staphylococcus aureus YUSA145. In kind it is functional.

What is called MBC is the smallest concentration meeting the test's criterion for killing. A high value points to weaker bactericidal potency. For orientation: MIC means the lowest concentration found to suppress growth. `O=C(C1=C(O)C(=O)N(c2nnc(SCc3ccccc3Cl)s2)C1c1ccccc1O)c1cc2ccccc2o1` (stereo unspecified): the MBC in assay [1] turned out to be 25 µM (≈ 14.4 µg/mL). For the same compound, the “fold change (FC)” value in assay [2] was determined as 2. Also, the inhibition result in assay [3] is “Active”. The Activity in the assay on Staphylococcus aureus [4] is on record as less than 50%. For the same compound, the “log(activity)” value in the assay on Staphylococcus aureus [5] came out at 1. In the assay on Staphylococcus aureus [6], it took 12.5 µM (≈ 7.2 µg/mL) to inhibit growth (MIC).
